# In patent US7759313B2, “Induction method for cell differentiation” (Obschetstvo S Ogranichennoi Otvetstvennostiyu …, priority 2002, dated 2010):
# Where “and” joins values, the source holds several entries; their conditions need not be identical. Identical values can stand only once. Entries after “also recorded” stand apart in the source; their conditions may differ.
# Columns and labels:
# [1] = Complete blood analysis of individual ovarian cancer patients; type: in vivo, human; conditions: for Platelets: in 10^9/L (unit assumed)
# Method: The effect of Dicarbamine was studied in 13 patients with stage III-IV ovarian cancer who underwent 77 courses of the chemotherapy according to the scheme: 400 mg/m^2 Carboplatin i.v. drop-wise, once +600 mg/m^2 Cyclophosphan i.v. drop-wise, once; the courses were repeated in 28 days. Dicarbamine was prescribed daily at dose 100 mg orally after meals beginning 5 days prior to the first course and then for three weeks. Dosing duration was 26 days, course dose being 2600 mg. Dicarbamine was given again 5 days prior to the second chemotherapy course, and dosing was continued for 21 days. Total duration of Dicarbamine intake during two the chemotherapy courses was 52 days.
# Hematopoiesis parameters were assessed dynamically many times before and after conducted the chemotherapy (control) as well as dynamically before and after Dicarbamine dosing in the test group. Below hematopoiesis parameters in individual patients who received the chemotherapy according to the indicated scheme with Dicarbamine or without it are presented.
# [2] = tested on: M-6 melanoma; assay: Melanin genesis intensity in M-6 melanoma cells (electronic microscopy); type: in vivo, human; conditions: for Average amount of melanosomes per a cell / MGII / Number of cells with melanosomes (per 500 cells): 1.0 mg/kg daily
# Method: The study was conducted on 10-12 week old thymus free (nude) female Balb/C mice weighing 20-22 grams (breeding of the Russian Cancer Research Center (RCRC) named after N. N. Blokhin of the Russian Academy of Medical Sciences (RAMS)). A human melanoma strain earlier obtained from primary clinical material was taken from the bank of tumor strains of the RCRC of the RAMS for transplantation to thymus free “nude” mice. Tumor was disintegrated by Versen solution with vital Trypan blue staining and inoculated subcutaneously to mice in the amount of 1.6 million cells per mouse.
# Dicarbamine was administered to mice intragastrically using a metal probe daily at dose 1.0 mg/kg beginning 4 days before the tumor inoculation and thereafter for 10-11 days (administration course up to 15 days). The mice were sacrificed with ether anesthesia in 12, 24 and 48 hours after the last administration.
# The effect of Dicarbamine on melanoma cell differentiation was assessed on the basis of the intensity of melanin genesis by counting the number of cells with melanin in the tumor slices. With this goal, tumors were excised from the mice, placed into glutaraldehyde and histologically processed for electronic microscopy. The Melanin Genesis Intensity Index (MGII), which reflects the degree of cell differentiation, was calculated in the prepared slices according to the following equation: MGII=NCM×NM,
# wherein: NCM is the number of cells containing melanosomes;
# NM is average number of melanosomes per a cell.
# [3] = tested on: human M-6 melanoma; assay: Human M-6 melanoma growth dynamics, Dicarbamine combined with chemotherapy; type: in vivo
# Method: The study was conducted according to the technique described in Example 3. Dicarbamine was administered daily p.o. at the single dose 4.5 mg/kg for 3 weeks from the moment of tumor appearance (from day 15 to day 36). In the groups of combined treatment Dicarbamine was also administered daily at the single dose 4.5 mg/kg for 3 weeks (days 15-36) in combination with a single administration of anti-tumor cytostatic agents Cysplatin at dose 6 mg/kg i.v. (day 25) and Aranoza at dose 40 mg/kg i.p. (day 27). Cytostatic therapy with was commenced when the average tumor volume reached 200±62 mm^3. At days 18, 25, 33, 39, 46 and 53 from the transplantation tumor volumes were measured and the value Vt/Vt−1 was calculated and expressed as a percentage.
# [4] = tested on: Friend erythroblastosis; assay: Friend erythroblastosis, histological examination; type: in vivo, mice
# Method: Friend erythroblastosis which was inoculated subcutaneously to DBA2 female mice via spleen cells was investigated.
# Group 2—Reaferon at dose 100 thousand IU/kg was administered daily s.c. from day 3 to day 7 after inoculation;
# Group 3—Dicarbamine at a single dose 4.5 mg/kg was administered p.o. from day 3 to day 7 after inoculation;
# Group 4—Dicarbamine and Reaferon were administered simultaneously according to a similar scheme.
# Material for light microscopy was taken from sacrificed animals at days 3, 7 and 14 after termination of therapy or administration of a physiological saline. Material for electronic microscopy was taken at days 7 and 14.
# For histological examination, tumor pieces were fixed in 10% neutral formalin and imbedded into paraffin; slices obtained were stained with hematoxylin-eosin and examined for glycogen (polysaccharide) content using the periodic acid Schiff reaction, for RNA content according to Brachet, and for lipids and iron. Slices were examined and photographed using a Polivar light microscope (Austria).
# The percentage of mitoses and cells with apoptosis, as well as areas of necrosis, were assessed during histological examination.
# [5] = tested on: human melanoma; assay: Number of cells with melanin in inoculated human melanoma (Goryaev's chamber); type: in vivo; conditions: 4.5 mg/kg p.o. daily for 3 weeks
# Method: Mice with subcutaneously inoculated human melanoma as described in Example 1 were daily p.o. dosed with Dicarbamine at a higher single dose (4.5 mg/kg for 3 weeks from the moment of the tumor transplantation).
# Animals were sacrificed three weeks after the tumor transplantation. By the time of sacrifice, the volume of the tumors was on average 150 mm^3. Following sacrifice, the tumors were excised from the mice and disintegrated with Versen solution, and the cell fraction containing cells with pigment was isolated. The number of cells with pigment was calculated in the Goryaev's chamber using light microscopy.
# [6] = with Dicarbamine, Day 0, before starting Dicarbamine
# [7] = with Dicarbamine, Day 5, before starting course 1 of CT
# [8] = with Dicarbamine, Day 21, after termination of Dicarbamine intake
# [9] = with Dicarbamine, Day 33, before course 2 of CT
# [10] = with Dicarbamine, course 2, Day 28 after course 1 of CT
# [11] = with Dicarbamine, course 2, Day 33
# [12] = with Dicarbamine, course 2, Day 54
# [13] = with Dicarbamine, course 2, Day 61
# [14] = Dicarbamine 4.5 mg/kg p.o. days 3-7
smiles,measurement,setting,value
O=C(O)CCCC(=O)NCCc1c[nH]cn1 [Dicarbamine],Leukocytes,"[1]; chemotherapy + Dicarbamine 100 mg daily, individual patients, course 1, Day 0, before starting Dicarbamine",5.9 10^9/l and 7.4 10^9/l and 6.6 10^9/l
same,timing of the third course of CT,"[1]; chemotherapy with Dicarbamine, individual patients",in time; also recorded: at term
same,Neutrophils,[1]; [6],4.2 10^9/l and 5.7 10^9/l and 5.0 10^9/l
same,Platelets,[1]; [6],170 and 174
same,Leukocytes,[1]; [7],5.5 10^9/l and 7.2 10^9/l and 5.9 10^9/l
same,Neutrophils,[1]; [7],4.0 10^9/l and 5.0 10^9/l and 4.2 10^9/l
same,Platelets,[1]; [7],164 and 165 and 172
same,Leukocytes,[1]; [8],4.7 10^9/l and 6.6 10^9/l and 5.5 10^9/l
same,Neutrophils,[1]; [8],3.3 10^9/l and 5.2 10^9/l and 4.4 10^9/l
same,Platelets,[1]; [8],160 and 162 and 166
same,Leukocytes,[1]; [9],4.0 10^9/l and 5.2 10^9/l and 5.0 10^9/l
same,Neutrophils,[1]; [9],2.9 10^9/l and 3.8 10^9/l and 3.4 10^9/l
same,Platelets,[1]; [9],158 and 167 and 164
same,Neutrophils,[1]; [10],3.2 10^9/l and 5.2 10^9/l and 3.0 10^9/l
same,Leukocytes,"[1]; with Dicarbamine, course 2, Day 28 after course 1 of CT, before starting Dicarbamine",4.9 10^9/l and 7.8 10^9/l and 5.6 10^9/l
same,Platelets,[1]; [10],180 and 165 and 170
same,Neutrophils,[1]; [11],3.3 10^9/l and 6.0 10^9/l and 3.2 10^9/l
same,Leukocytes,"[1]; with Dicarbamine, course 2, Day 33, before starting course of CT",5.0 10^9/l and 8.2 10^9/l and 5.8 10^9/l
same,Platelets,[1]; [11],170 and 160
same,Neutrophils,[1]; [12],3.1 10^9/l and 6.2 10^9/l and 3.4 10^9/l
same,Leukocytes,"[1]; with Dicarbamine, course 2, Day 54, after termination of Dicarbamine intake",4.2 10^9/l and 7.6 10^9/l and 5.7 10^9/l
same,Platelets,[1]; [12],160 and 162 and 176
same,Neutrophils,[1]; [13],3.0 10^9/l and 5.8 10^9/l and 3.2 10^9/l
same,Leukocytes,"[1]; with Dicarbamine, course 2, Day 61, before course 3 of CT",4.2 10^9/l and 7.2 10^9/l and 5.5 10^9/l
same,Platelets,[1]; [13],160 and 157 and 165
same,Average amount of melanosomes per a cell,[2]; 12 hours since withdrawal,28.0
same,MGII,[2]; 12 hours since withdrawal,9.8
same,Number of cells with melanosomes (per 500 cells),[2]; 12 hours since withdrawal,175.0
same,Average amount of melanosomes per a cell,[2]; 24 hours since withdrawal,35.0
same,MGII,[2]; 24 hours since withdrawal,14.7
same,Number of cells with melanosomes (per 500 cells),[2]; 24 hours since withdrawal,210.0
same,Average amount of melanosomes per a cell,[2]; 48 hours since withdrawal,42.0
same,MGII,[2]; 48 hours since withdrawal,19.0
same,Number of cells with melanosomes (per 500 cells),[2]; 48 hours since withdrawal,227.0
same,average increase of M-6 melanoma tumor cell differentiation degree (MGII),[2]; following a 15 day course,2.2 fold
same,increase in the number of cells comprising melanosomes,[2]; following a 15 day course,1.3 fold
same,increase in the number of melanosomes,[2]; following a 15 day course,1.3 fold
same,MGII index increase vs control,[2]; in 12 hours,1.9 fold
same,MGII index increase vs control,[2]; in 24 hours,2.4 fold
same,MGII index increase vs control,[2]; in 48 hours,2.3 fold
same,"Vt/Vt−1, M ± m","[3]; Dicarbamine 4.5 mg/kg p.o. days 15-36 + Cysplatin 6 mg/kg i.v. + Aranoza 40 mg/kg i.p., 25 Day",182.0±60.0% and 182.0 + 60.0** %
same,"Vt/Vt−1, M ± m","[3]; Dicarbamine + Cysplatin + Aranoza, 33 Day",191.0 + 71.0%
same,"Vt/Vt−1, M ± m","[3]; Dicarbamine + Cysplatin + Aranoza, 39 Day",24.5 + 17.4%
same,"Vt/Vt−1, M ± m","[3]; Dicarbamine + Cysplatin + Aranoza, 46 Day",28.7 + 9.8%
same,"Vt/Vt−1, M ± m","[3]; Dicarbamine + Cysplatin + Aranoza, 53 Day",8.0 + 30.6%
same,"Vt/Vt−1, M ± m","[3]; Dicarbamine alone 4.5/94.5 mg/kg p.o. days 15-36, 25 Day",166.0±93.0%
same,"Vt/Vt−1, M ± m","[3]; Dicarbamine alone, 33 Day",276.0 ± 104.0%
same,"Vt/Vt−1, M ± m","[3]; Dicarbamine alone, 39 Day",39.8 ± 27.3%
same,"Vt/Vt−1, M ± m","[3]; Dicarbamine alone, 46 Day",19.6 ± 17.5%
same,"Vt/Vt−1, M ± m","[3]; Dicarbamine alone, 53 Day",4.2 + 22.5%
same,Apoptosis,"[4]; Dicarbamine 4.5 mg/kg p.o. + Reaferon 100 thousand IU/kg s.c., day 3",0.2-0.5%
same,area of necrosis as compared to group I (control),[4]; [14],did not significantly change
same,mitotic activity as compared to the control,[4]; [14],remained within the limits of the control figures
same,area of necrosis and mitotic activity as compared to group II (Reaferon),[4]; Dicarbamine + Reaferon,did not show significant shifts
same,Apoptosis,"[4]; Dicarbamine + Reaferon, days 7 and 14",0.5%
same,increase of number of cells synthesizing melanin vs control,[5],3 fold
same,Number of cells with melanin,[5]; individual tumors 1-7,95 (2×) and 110 and 130 and 106 and 111 (2×)
